Reference: the supplement of paper PMC12076712

Legend:
Test in all cases: pIC50, kinobeads binding competition
Conditions in all cases: cell material: Jurkat lysate
CIT = CIT (UniProt O14578)
EPHB2 = target: T1, EPHB2 (UniProt P29323)
T1 sequence (whole entry): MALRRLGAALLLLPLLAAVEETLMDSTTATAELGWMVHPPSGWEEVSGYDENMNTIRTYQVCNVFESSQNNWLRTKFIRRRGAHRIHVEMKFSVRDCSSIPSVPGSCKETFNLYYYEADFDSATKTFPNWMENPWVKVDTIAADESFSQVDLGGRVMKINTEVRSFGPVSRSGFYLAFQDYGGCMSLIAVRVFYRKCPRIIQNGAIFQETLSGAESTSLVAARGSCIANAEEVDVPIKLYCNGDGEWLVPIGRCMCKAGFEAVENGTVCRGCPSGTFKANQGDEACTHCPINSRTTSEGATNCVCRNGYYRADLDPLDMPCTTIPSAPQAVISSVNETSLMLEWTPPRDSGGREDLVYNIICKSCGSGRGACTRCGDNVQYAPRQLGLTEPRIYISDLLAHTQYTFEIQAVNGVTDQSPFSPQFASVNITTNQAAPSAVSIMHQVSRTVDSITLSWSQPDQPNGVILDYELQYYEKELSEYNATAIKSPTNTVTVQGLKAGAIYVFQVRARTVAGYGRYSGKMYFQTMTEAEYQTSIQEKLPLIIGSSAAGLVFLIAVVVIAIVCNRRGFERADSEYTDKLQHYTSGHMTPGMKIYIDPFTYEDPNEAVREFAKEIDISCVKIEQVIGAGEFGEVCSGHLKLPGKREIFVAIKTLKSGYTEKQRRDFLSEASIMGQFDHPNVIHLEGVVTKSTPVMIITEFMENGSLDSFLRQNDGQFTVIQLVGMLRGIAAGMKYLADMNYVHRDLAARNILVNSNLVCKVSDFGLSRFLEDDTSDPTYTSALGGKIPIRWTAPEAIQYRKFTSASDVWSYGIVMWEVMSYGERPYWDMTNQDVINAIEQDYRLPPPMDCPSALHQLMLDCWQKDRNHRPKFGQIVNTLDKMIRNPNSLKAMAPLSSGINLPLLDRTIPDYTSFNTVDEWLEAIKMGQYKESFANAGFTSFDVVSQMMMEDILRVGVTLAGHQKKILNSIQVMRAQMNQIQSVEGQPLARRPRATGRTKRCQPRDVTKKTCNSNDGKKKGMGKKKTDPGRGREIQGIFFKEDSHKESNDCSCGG

MASTL = target: T2, MASTL (UniProt Q96GX5)
T2 sequence (whole entry): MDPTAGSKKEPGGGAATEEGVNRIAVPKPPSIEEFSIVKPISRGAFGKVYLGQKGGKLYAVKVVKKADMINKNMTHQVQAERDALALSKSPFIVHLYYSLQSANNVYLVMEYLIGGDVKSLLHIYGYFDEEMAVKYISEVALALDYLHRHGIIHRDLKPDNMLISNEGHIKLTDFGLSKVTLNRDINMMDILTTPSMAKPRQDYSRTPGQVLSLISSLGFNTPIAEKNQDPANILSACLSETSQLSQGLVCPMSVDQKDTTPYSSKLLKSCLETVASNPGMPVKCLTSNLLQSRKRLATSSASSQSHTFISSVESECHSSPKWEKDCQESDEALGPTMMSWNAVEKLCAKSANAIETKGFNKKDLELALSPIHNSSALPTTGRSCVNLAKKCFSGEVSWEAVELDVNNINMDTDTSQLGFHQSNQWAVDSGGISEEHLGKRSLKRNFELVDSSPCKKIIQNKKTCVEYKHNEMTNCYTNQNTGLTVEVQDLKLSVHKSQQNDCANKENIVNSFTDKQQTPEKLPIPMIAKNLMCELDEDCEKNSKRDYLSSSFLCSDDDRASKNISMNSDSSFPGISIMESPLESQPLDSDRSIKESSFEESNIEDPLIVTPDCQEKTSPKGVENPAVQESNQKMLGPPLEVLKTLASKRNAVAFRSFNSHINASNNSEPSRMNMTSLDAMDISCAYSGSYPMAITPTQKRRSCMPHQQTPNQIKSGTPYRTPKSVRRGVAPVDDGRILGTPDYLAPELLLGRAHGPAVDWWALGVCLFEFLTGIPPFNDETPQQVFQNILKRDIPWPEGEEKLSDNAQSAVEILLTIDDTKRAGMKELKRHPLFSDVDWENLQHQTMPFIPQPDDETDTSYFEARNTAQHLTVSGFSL

ROCK2 = ROCK2 (UniProt O75116)
SYK = SYK (UniProt P43405)
UniProt P78527 = target: UniProt P78527
UniProt Q05655 = target: UniProt Q05655
UniProt Q14289 = target: UniProt Q14289
UniProt Q5TCX8 = target: UniProt Q5TCX8
UniProt Q8IW41 = target: T3, UniProt Q8IW41
T3 sequence (whole entry): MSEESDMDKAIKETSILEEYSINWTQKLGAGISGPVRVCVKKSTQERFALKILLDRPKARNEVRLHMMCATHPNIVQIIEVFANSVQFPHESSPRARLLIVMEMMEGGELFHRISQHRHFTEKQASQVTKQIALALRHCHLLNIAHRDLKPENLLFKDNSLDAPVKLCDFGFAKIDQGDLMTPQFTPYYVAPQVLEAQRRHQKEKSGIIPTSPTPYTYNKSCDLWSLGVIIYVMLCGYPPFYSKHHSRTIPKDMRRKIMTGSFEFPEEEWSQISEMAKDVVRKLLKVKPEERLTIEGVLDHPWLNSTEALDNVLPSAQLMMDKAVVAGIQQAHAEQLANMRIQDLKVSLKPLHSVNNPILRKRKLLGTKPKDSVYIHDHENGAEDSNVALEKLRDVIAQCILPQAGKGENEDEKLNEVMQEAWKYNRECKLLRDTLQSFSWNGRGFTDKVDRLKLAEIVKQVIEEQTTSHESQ

UniProt Q9BVS4 = target: UniProt Q9BVS4
UniProt Q9Y2H1 = target: UniProt Q9Y2H1
UniProt Q9Y2H1, sequence (Q9Y2H1 whole entry, looked up): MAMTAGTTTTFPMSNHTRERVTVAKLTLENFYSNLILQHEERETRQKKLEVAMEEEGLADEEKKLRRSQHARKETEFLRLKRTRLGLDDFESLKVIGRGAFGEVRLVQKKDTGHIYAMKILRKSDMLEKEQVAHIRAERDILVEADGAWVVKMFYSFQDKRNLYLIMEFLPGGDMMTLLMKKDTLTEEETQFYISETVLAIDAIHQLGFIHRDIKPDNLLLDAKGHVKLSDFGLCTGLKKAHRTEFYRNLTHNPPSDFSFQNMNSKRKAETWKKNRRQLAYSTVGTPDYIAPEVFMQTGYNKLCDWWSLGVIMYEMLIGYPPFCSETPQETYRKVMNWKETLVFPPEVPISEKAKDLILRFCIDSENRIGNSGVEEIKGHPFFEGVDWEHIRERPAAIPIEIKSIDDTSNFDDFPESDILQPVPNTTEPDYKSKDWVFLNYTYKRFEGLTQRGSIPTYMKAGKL

CIT, sequence (O14578 whole entry): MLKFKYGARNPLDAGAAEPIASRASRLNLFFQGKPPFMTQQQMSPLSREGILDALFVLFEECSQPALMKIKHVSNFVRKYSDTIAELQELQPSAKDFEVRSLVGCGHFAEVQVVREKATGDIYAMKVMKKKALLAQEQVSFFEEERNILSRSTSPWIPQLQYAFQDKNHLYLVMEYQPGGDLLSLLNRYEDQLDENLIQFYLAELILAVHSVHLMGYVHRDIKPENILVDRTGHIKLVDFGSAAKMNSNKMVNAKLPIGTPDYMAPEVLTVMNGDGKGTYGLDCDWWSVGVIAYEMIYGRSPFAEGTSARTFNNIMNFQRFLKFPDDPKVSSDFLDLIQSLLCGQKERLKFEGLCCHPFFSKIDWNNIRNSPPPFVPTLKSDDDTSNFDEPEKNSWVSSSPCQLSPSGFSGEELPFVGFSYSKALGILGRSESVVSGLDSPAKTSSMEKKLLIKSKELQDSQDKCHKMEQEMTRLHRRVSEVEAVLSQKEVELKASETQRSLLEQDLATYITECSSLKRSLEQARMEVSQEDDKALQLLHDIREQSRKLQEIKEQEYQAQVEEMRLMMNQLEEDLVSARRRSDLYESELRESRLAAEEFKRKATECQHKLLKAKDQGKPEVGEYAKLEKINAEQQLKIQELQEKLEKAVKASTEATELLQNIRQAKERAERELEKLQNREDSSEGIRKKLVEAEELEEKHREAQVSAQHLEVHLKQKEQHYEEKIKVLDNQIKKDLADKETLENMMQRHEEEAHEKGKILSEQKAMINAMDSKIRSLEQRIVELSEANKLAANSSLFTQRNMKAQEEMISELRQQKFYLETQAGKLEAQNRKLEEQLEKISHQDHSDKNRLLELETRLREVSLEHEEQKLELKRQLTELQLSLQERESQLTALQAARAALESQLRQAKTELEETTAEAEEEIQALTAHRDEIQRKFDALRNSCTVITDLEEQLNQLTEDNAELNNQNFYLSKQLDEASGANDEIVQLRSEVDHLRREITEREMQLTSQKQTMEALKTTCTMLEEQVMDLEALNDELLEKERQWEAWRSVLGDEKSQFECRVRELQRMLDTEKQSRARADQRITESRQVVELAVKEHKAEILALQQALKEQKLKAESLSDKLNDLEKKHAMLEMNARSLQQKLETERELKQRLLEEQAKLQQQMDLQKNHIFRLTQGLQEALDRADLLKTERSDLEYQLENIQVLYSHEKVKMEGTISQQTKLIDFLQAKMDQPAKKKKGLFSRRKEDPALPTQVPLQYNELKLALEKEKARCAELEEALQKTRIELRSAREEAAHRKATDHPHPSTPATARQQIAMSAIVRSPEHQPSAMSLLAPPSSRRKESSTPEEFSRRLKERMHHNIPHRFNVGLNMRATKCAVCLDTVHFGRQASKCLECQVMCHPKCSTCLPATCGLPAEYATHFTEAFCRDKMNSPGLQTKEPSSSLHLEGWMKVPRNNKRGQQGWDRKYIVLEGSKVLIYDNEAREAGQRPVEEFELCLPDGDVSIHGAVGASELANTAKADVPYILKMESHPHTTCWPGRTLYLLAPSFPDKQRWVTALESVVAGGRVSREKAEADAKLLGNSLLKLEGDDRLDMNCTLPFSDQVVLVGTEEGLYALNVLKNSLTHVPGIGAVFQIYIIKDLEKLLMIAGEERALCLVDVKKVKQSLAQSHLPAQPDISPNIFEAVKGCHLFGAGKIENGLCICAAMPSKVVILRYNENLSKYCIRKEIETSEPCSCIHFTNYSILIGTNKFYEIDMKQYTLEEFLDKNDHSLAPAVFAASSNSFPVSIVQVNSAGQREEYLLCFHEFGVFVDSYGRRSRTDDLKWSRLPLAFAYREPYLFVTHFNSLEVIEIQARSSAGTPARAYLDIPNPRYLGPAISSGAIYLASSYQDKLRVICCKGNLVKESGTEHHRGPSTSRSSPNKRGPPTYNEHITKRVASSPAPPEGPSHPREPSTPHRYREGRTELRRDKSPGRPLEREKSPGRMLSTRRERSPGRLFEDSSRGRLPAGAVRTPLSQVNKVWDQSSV
UniProt Q05655, sequence (Q05655 whole entry, looked up): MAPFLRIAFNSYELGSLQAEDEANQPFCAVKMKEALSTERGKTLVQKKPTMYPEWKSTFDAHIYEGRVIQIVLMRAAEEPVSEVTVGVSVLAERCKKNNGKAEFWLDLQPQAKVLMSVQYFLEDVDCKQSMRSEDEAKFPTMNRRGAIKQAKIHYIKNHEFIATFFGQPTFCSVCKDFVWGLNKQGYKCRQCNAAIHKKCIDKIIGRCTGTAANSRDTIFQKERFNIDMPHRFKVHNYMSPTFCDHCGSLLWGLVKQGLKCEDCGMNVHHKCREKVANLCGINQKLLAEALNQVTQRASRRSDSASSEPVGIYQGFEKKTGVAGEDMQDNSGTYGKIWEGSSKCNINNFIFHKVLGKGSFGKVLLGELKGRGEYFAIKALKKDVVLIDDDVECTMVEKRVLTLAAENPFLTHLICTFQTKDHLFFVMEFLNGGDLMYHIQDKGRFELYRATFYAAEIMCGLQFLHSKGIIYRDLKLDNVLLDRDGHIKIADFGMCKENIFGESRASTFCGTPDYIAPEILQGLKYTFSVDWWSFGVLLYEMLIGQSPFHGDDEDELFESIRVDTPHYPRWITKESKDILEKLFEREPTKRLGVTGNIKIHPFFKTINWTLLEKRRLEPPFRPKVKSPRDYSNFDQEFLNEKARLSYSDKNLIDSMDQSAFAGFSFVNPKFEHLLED
ROCK2, sequence (O75116 whole entry, looked up): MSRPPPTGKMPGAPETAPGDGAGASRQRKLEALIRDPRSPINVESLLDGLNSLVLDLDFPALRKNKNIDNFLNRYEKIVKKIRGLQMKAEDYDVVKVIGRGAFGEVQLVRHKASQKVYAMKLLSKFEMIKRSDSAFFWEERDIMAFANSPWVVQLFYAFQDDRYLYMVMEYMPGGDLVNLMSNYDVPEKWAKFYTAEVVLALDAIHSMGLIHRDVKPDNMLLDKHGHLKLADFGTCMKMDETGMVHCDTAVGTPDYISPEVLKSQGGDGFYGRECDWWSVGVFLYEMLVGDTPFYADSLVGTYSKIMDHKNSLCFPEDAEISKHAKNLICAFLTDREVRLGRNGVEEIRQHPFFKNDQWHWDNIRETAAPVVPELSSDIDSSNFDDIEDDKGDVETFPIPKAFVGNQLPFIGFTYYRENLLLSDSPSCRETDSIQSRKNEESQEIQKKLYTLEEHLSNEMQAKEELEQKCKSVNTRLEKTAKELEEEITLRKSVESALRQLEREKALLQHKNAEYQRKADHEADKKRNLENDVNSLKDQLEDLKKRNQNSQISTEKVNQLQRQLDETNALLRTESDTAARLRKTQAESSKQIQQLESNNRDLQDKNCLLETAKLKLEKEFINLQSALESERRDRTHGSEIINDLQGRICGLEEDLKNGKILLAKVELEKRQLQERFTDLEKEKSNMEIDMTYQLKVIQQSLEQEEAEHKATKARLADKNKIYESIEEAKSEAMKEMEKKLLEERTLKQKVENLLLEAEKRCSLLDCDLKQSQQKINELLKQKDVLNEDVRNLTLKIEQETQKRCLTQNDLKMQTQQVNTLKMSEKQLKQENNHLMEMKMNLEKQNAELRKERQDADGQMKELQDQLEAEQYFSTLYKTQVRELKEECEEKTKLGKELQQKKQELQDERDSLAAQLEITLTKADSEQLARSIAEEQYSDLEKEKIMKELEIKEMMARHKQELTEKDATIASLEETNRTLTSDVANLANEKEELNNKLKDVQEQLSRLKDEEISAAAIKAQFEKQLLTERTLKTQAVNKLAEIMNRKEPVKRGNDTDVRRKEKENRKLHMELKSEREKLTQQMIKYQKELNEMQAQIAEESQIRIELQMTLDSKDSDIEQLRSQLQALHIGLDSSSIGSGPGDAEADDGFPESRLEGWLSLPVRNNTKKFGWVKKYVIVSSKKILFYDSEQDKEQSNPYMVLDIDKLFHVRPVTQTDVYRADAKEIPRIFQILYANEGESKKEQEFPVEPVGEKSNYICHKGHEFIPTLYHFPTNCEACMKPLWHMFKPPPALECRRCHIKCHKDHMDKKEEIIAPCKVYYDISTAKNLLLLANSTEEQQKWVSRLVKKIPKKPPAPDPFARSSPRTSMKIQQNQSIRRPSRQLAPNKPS
UniProt Q9BVS4, sequence (Q9BVS4 whole entry, looked up): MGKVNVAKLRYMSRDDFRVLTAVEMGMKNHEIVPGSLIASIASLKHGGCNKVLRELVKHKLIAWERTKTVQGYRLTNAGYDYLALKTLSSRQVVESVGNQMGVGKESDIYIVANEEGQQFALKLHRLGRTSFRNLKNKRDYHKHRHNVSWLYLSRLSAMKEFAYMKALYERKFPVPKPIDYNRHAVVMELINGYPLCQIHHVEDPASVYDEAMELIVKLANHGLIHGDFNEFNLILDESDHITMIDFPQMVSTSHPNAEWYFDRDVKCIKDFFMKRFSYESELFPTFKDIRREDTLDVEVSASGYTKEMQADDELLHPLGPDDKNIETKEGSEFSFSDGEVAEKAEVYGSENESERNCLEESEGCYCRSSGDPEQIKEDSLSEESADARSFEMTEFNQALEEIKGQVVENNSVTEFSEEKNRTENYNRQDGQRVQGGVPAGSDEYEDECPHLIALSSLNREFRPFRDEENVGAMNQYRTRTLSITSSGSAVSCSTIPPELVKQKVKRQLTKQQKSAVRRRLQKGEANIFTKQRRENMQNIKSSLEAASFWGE

- pIC50 (CIT): < 4.52
- pIC50 (EPHB2): < 4.52
- pIC50 (MASTL): < 4.52
- pIC50 (ROCK2): < 4.52
- pIC50 (SYK): < 4.52
- pIC50 (UniProt P78527): < 4.52
- pIC50 (UniProt Q05655): < 4.52
- pIC50 (UniProt Q14289): < 4.52
- pIC50 (UniProt Q5TCX8): < 4.52
- pIC50 (UniProt Q8IW41): < 4.52
- pIC50 (UniProt Q9BVS4): < 4.52
- pIC50 (UniProt Q9Y2H1): < 4.52
SMILES: CCc1cnn2c(NCc3ccc[n+]([O-])c3)cc(N3CCCC[C@H]3CCO)nc12 [dinaciclib]
